What all share (test): biochemical
Common to all, as to parameters: KINOMEscan active site-directed competition binding assay (DiscoveRx), 456 kinases, per cent of control at 300 nM
Common to all, as to details: read-out: Percent of Control (%)

One experiment addresses EPHA3 (Homo sapiens, UniProt P29320). A digest of the protocol:
(§1)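 Binding was measured with an active site-directed competition binding assay that quantifies compound–kinase interactions. Test compounds were screened at 300 nmol/L across a 456-kinase panel.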

A further experiment concerns the target T1, MEK5 (Homo sapiens, UniProt Q13163).
T1 construct: gene MAP2K5
A digest of the protocol: as §1

Another experiment addresses EPHB2 (Homo sapiens, UniProt P29323). Put shortly:
as §1

The target of the next experiment is TGFBR2 (Homo sapiens, UniProt P37173). Put shortly: as §1
The target of another experiment is ULK1 (Homo sapiens, UniProt O75385). A digest of the protocol: as §1
The target in the next experiment is T2, BIKE (Homo sapiens, UniProt Q9NSY1).
T2 construct: gene BMP2K
Put shortly:
as §1

The next experiment addresses T3, PRP4 (Homo sapiens, UniProt Q13523).
T3 construct: gene PRPF4B
Put shortly: as §1

For the next experiment, the target named is KIT (Homo sapiens, UniProt P10721). Put shortly:
as §1

The target of a further experiment is IRAK4 (Homo sapiens, UniProt Q9NWZ3). Put shortly:
as §1

A further experiment deals with WEE2 (Homo sapiens, UniProt P0C1S8). Put shortly:
as §1

For the next experiment, the target named is T4, MST4 (Homo sapiens, UniProt Q9P289).
T4 construct: gene STK26
A digest of the protocol: as §1

Another experiment concerns the target CAMK4 (Homo sapiens, UniProt Q16566). A digest of the protocol:
as §1

For another experiment, the target named is T5, MLK1 (Homo sapiens, UniProt P80192).
T5 construct: gene MAP3K9
Put shortly:
as §1

The target in another experiment is CDKL2 (Homo sapiens, UniProt Q92772). Put shortly: as §1
In a further experiment the target is PIK3CA(H1047Y) (Homo sapiens, UniProt P42336, H1047Y). Put shortly:
as §1

The target in the next experiment is EIF2AK1 (Homo sapiens, UniProt Q9BQI3). A digest of the protocol:
as §1

The target in another experiment is RET(V804M) (Homo sapiens, UniProt P07949, V804M). Put shortly:
as §1

The target in a further experiment is T6, CDK11 (Homo sapiens, UniProt Q9BWU1).
T6 construct: gene CDK19
A digest of the protocol: as §1

A further experiment has as its target EPHB3 (Homo sapiens, UniProt P54753). Put shortly:
as §1

The next experiment has as its target FLT4 (Homo sapiens, UniProt P35916). Put shortly:
as §1

The next experiment deals with T7, AMPK-alpha2 (Homo sapiens, UniProt P54646).
T7 construct: gene PRKAA2
Put shortly: as §1

The target of the next experiment is MERTK (Homo sapiens, UniProt Q12866). A digest of the protocol:
as §1

Read-outs that look alike come from different tables or passages of the source.

T6 sequence (Q9BWU1 whole entry): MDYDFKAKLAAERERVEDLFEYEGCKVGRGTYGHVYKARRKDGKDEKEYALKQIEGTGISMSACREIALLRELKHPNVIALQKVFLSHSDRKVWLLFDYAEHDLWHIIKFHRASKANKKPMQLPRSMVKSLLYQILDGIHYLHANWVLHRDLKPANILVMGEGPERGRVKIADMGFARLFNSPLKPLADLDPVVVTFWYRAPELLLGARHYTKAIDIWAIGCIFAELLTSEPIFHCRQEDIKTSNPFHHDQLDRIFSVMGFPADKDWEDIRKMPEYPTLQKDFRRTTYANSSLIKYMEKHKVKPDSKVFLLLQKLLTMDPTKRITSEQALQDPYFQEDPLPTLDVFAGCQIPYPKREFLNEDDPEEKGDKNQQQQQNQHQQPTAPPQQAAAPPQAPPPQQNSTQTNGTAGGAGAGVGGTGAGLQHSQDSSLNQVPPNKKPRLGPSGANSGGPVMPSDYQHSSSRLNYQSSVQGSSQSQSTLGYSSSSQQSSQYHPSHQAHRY
Chain of PIK3CA(H1047Y) (P42336 whole entry H1047Y): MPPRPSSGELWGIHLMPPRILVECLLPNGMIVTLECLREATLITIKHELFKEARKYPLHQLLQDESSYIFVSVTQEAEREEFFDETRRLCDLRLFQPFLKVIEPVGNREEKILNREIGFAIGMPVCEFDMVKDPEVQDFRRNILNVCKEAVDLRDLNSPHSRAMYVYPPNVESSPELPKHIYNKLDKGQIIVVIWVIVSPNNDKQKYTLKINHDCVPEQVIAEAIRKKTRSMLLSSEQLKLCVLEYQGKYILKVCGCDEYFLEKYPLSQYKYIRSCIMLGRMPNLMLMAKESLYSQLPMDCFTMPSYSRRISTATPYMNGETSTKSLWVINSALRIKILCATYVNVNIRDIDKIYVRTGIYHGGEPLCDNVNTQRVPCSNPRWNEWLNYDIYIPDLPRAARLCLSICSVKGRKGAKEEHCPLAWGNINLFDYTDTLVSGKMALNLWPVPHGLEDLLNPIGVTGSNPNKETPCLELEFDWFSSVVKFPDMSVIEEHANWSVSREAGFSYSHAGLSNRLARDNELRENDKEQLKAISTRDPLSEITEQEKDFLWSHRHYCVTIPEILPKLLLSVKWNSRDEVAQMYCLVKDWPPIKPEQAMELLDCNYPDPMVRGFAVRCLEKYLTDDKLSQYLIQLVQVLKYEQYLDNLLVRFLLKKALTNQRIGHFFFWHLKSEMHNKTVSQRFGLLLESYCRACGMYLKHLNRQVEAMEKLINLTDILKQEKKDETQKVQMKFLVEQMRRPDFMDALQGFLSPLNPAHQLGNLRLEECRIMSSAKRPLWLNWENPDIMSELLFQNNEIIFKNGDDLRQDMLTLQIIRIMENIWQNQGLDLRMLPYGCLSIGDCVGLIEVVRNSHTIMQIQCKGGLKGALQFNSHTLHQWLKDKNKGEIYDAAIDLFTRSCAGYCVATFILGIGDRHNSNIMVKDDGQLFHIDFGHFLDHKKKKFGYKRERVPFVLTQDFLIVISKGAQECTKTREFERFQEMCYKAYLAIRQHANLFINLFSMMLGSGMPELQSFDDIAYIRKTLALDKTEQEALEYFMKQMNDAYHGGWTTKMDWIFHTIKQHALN
Chain of CDKL2 (Q92772 whole entry): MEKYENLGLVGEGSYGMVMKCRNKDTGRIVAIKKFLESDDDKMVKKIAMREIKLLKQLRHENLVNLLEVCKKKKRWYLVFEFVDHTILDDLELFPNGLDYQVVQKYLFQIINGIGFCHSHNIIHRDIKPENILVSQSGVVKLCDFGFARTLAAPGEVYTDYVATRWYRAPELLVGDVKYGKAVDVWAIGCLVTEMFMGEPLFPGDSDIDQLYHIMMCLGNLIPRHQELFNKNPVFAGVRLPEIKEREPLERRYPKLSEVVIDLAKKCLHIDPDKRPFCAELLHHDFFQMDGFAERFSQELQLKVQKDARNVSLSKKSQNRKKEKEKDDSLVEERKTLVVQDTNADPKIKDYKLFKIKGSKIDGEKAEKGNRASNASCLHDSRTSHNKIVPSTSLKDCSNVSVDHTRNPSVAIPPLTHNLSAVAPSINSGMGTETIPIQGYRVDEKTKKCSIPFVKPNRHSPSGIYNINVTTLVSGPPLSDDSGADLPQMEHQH
Chain of WEE2 (P0C1S8 whole entry): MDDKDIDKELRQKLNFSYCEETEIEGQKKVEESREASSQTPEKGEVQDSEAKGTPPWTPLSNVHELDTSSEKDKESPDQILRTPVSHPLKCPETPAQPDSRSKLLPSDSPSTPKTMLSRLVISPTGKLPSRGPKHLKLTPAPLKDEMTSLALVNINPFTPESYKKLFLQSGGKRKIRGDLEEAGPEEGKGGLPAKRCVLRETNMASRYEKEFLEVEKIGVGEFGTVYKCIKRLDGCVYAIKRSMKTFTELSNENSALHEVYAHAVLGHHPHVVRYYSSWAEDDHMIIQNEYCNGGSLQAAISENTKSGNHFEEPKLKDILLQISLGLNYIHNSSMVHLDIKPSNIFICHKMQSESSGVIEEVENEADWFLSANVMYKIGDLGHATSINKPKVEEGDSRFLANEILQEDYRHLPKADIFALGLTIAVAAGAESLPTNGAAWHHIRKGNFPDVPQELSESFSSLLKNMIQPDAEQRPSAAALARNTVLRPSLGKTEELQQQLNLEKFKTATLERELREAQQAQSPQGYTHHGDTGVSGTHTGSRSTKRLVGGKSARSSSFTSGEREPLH
T7 sequence (P54646 whole entry): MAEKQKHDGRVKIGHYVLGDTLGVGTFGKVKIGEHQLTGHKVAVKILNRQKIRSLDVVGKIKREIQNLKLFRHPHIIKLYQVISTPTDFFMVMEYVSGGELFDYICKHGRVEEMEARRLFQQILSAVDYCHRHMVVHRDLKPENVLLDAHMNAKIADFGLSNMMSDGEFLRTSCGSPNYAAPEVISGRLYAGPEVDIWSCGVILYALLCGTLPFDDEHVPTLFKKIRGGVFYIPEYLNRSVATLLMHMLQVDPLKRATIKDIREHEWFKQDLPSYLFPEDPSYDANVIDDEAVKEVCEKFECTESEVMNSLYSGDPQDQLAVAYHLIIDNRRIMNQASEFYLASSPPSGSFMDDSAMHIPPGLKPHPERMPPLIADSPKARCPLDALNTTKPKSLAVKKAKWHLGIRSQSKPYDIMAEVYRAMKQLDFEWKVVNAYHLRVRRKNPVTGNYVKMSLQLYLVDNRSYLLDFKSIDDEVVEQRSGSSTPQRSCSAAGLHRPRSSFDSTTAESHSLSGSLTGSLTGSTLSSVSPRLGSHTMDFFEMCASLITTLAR
Chain of TGFBR2 (P37173 whole entry): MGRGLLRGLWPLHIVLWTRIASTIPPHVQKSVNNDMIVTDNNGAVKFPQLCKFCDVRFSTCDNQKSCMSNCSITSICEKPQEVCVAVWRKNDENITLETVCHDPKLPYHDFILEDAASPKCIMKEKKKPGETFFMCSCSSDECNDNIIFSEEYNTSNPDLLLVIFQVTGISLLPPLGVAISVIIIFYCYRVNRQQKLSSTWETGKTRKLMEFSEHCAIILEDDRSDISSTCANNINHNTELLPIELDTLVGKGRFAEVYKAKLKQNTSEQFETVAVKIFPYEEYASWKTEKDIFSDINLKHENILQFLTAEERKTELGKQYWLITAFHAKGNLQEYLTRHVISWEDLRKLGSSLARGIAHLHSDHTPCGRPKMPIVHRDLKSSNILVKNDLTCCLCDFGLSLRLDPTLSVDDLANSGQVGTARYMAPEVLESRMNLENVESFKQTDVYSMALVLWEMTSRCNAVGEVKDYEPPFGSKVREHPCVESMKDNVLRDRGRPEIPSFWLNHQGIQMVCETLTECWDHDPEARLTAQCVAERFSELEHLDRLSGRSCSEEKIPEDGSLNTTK
Chain of RET(V804M) (P07949 whole entry V804M): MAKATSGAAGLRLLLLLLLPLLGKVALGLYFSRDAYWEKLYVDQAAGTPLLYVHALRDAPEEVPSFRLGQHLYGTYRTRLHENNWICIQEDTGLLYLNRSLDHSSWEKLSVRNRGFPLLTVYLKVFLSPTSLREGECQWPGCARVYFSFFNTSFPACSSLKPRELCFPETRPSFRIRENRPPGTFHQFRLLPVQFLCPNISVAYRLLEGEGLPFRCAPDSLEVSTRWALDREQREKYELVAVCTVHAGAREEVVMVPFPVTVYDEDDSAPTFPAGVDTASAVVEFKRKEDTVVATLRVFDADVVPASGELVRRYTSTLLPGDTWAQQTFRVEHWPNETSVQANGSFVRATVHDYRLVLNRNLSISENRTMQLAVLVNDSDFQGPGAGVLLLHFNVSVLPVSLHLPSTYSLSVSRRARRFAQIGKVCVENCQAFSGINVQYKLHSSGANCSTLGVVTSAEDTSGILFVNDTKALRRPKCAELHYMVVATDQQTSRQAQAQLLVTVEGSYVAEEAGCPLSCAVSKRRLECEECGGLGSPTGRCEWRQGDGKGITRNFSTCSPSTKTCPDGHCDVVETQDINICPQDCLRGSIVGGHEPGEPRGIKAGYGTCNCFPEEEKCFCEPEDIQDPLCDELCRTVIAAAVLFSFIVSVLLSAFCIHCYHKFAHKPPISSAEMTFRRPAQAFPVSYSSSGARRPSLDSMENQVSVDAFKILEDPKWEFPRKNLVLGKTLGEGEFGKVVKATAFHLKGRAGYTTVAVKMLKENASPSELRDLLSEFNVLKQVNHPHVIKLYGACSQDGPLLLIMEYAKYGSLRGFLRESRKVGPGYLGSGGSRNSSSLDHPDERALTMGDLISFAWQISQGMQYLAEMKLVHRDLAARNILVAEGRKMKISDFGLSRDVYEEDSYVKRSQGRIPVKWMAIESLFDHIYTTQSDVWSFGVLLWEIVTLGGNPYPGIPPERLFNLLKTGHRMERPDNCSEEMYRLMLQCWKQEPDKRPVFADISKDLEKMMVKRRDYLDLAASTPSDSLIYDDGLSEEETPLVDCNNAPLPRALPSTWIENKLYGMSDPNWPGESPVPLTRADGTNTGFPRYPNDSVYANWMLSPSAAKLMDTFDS

`O=C(/C=C/c1cnccc1-c1ccc(F)cc1)Nc1ccc(CCc2nnco2)cc1` [T-418, (2E)-3-(4-(4-fluorophenyl)pyridin-3-yl)-N-(4-(2-(1,3,4-oxadiazol-2-yl)ethyl)phenyl)acrylamide]: the remaining binding at 0.3 µM on EPHA3 (sheet T-418) was 100%; on MEK5 (sheet T-418), 100%; on EPHB2 (sheet T-418) it was 100%; on TGFBR2 (sheet T-418), 84%; on ULK1 (sheet T-418), 41%; on BIKE (sheet T-418), 97%. The remaining binding at 0.3 µM came out at 82% at PRP4 (sheet T-418); 100% on KIT (sheet T-418); 100% on IRAK4 (sheet T-418); 100% at WEE2 (sheet T-418); 63% on MST4 (sheet T-418); 78% on CAMK4 (sheet T-418). The remaining binding at 0.3 µM at MLK1 (sheet T-418) amounted to 100%; at CDKL2 (sheet T-418), 100%; at PIK3CA(H1047Y) (sheet T-418) it was 73%; on EIF2AK1 (sheet T-418) it was 100%; at RET(V804M) (sheet T-418) it was 100%; on CDK11 (sheet T-418), 6.4%. For the same compound, the remaining binding at 0.3 µM on EPHB3 (sheet T-418) came out at 98%; on FLT4 (sheet T-418), 84%; at AMPK-alpha2 (sheet T-418), 100%; at MERTK (sheet T-418), 100%.
Consider `Cc1ncccc1Oc1sc(C(N)=O)c2c1-c1c(cnn1C)CC2` [T-474, 1-methyl-8-((2-methylpyridin-3-yl)oxy)-4,5-dihydro-1H-thieno[3,4-g]indazole-6-carboxamide], for which the remaining binding at 0.3 µM on EPHA3 amounted to 100%; on MEK5 it was 100%; at EPHB2 it was 83%; on TGFBR2, 78%; at ULK1 it was 43%; on BIKE, 100%. The remaining binding at 0.3 µM at PRP4 was determined as 89%; at KIT, 100%; on IRAK4 it was 100%; at WEE2, 100%; on MST4, 64%; on CAMK4, 100%. Further, the remaining binding at 0.3 µM is 100% on MLK1; 100% on CDKL2; 54% on PIK3CA(H1047Y); 100% at EIF2AK1; 100% on RET(V804M); 1.1% at CDK11. The remaining binding at 0.3 µM on EPHB3 is 100%; on FLT4, 83%; at AMPK-alpha2, 100%; at MERTK, 100%.

Values taken from publication PMC5862592, “CDK8/19 inhibition induces premature G1/S transition and ATR-dependent cell death in prostate cancer cells” (Oncotarget, 2018).
